The structures appear in SMILES notation.

The results in this text go back to ChEMBL document CHEMBL1139632, “Design and synthesis of new 2-substituted-5-(2-benzylthiophenyl)-1,3,4-oxadiazoles as benzodiazepine receptor agonists” (Bioorg Med Chem Lett, 2005).

Data set [1] has as its system Mus musculus. Kind of data set: Ability of the compound to protect mice against pentylenetetrazole induced convulsion in the presence of 10 mg/kg flumazenil; Ranges 60.1-135.9. The class given is functional.
Data set [2] has as its system Mus musculus. Kind of data set: Ability of the compound to protect mice against maximal electric shock (MES) induced convulsion in the presence of 10 mg/kg flumazenil; Range 54.9-102.9. In kind it is functional.
The nature of data set [3]: Lethal dose in mice. The class given is toxicity. The conditions noted are these: mouse, in vivo.
The species entered for data set [4] is Mus musculus. Kind of data set: Lethal dose of in mice. In kind it is functional.

On to `Nc1nnc(-c2ccccc2SCc2ccccc2)o1`, for which the figures for the ED50 with Mus musculus [1] and with Mus musculus [2] were 89.2 mg/kg and 43.3 mg/kg, respectively. The compound also registered an LD50 in data set [3] above 300 mg/kg.
For the compound `Sc1nnc(-c2ccccc2SCc2ccccc2)o1`, the LD50 in the data set listed under Mus musculus [4] is above 300 mg/kg. In addition, the ED50 in the data set on Mus musculus [1] and in the data set with Mus musculus [2] was above 100 mg/kg each time.
`Nc1nnc(-c2ccccc2SCc2ccc(Cl)cc2)o1` showed an LD50 in the data set filed under Mus musculus [4] above 300 mg/kg. In addition, the ED50 in the data set with Mus musculus [1] and in the data set on Mus musculus [2] was above 100 mg/kg in each case.
Compound `c1ccc(CSc2nnc(-c3ccccc3SCc3ccccc3)o2)cc1` showed an LD50 in the data set filed under Mus musculus [4] above 300 mg/kg. For the same compound, the ED50 in the data set on Mus musculus [1] and in the data set on Mus musculus [2] was above 100 mg/kg each time.
For `CN1C(=O)CN=C(c2ccccc2)c2cc(Cl)ccc21` [DIAZEPAM], the ED50 worked out at 1.4 mg/kg in the data set with Mus musculus [1] and 1.8 mg/kg in the data set on Mus musculus [2].
For the compound `CCSc1nnc(-c2ccccc2SCc2ccccc2)o1`, the LD50 in the data set filed under Mus musculus [4] is above 300 mg/kg. Further, the ED50 with Mus musculus [1] and in the data set with Mus musculus [2] was above 100 mg/kg in each case.
`CSc1nnc(-c2ccccc2SCc2ccccc2)o1` had an LD50 in the data set filed under Mus musculus [4] above 300 mg/kg. Besides, the figures for the ED50 in the data set on Mus musculus [1] and in the data set with Mus musculus [2] were 93.2 mg/kg and above 100 mg/kg, respectively.
The corresponding values for `Nc1nnc(-c2ccccc2SCc2ccc(F)cc2)o1` are above 300 mg/kg, 29.1 mg/kg and above 100 mg/kg.

In general, ED50 refers to the dose that gives a 50% effect, or the effect in half of the subjects. Usually LD50 stands for the dose expected to kill half of the subjects tested. High values mean lower toxicity, low ones greater toxicity.
